# Data as given in patent publication US8952024B2, “Herbicidal pyrimidone derivatives” (E I du Pont de Nemours and Company, priority 2009, dated 2015).
# How the values were obtained:
# Type in all cases: in vivo
# corn (Zea mays) = test: Test A pre-/postemergence plant response
# In short: (§1)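 Each species was treated preemergence via directed soil spray and postemergence at the one- to two-leaf stage, with compounds formulated in a non-phytotoxic solvent plus surfactant. Visual injury relative to untreated controls was rated after about ten days on a 0–100 scale.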
# [1] = tested on: giant foxtail (Setaria faberii); test: Test A pre-/postemergence plant response
# In short: as §1
# [2] = tested on: velvetleaf (Abutilon theophrasti); test: Test A pre-/postemergence plant response
# In short: as §1
# [3] = tested on: wheat (Triticum aestivum); test: Test A pre-/postemergence plant response
# In short: as §1
# [4] = tested on: pigweed (Amaranthus retroflexus); test: Test A pre-/postemergence plant response
# In short: as §1
# [5] = tested on: barnyardgrass (Echinochloa crus-galli); test: Test A pre-/postemergence plant response
# In short: as §1
# [6] = tested on: morningglory (Ipomoea spp.); test: Test A pre-/postemergence plant response
# In short: as §1
# [7] = tested on: large crabgrass (Digitaria sanguinalis); test: Test A pre-/postemergence plant response
# In short: as §1
# [8] = tested on: barnyardgrass (Echinochloa crus-galli); test: Test B flooded paddy test; conditions: for Plant response rating, Flood, Barnyardgrass: 250 g ai/ha, flooded paddy test, visual rating on 0 to 100 scale (0 no effect, 100 complete control) after 13 to 15 days; for Plant response rating, Barnyardgrass: Flood (flooded paddy test), 13 to 15 days
# In short: (§2)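 Each compound is added to standing floodwater (3 cm above soil, maintained) in pots of 2-leaf-stage plants; greenhouse exposure lasts 13–15 d before visual comparison with controls on a 0–100 control scale.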
# [9] = tested on: umbrella sedge (Cyperus difformis); test: Test B flooded paddy test; conditions: for Plant response rating, Flood, Sedge, Umbrella: 250 g ai/ha, flooded paddy test, visual rating on 0 to 100 scale (0 no effect, 100 complete control) after 13 to 15 days; for Plant response rating, Sedge, Umbrella: Flood (flooded paddy test), 13 to 15 days
# In short: as §2
# [10] = tested on: ducksalad (Heteranthera limosa); test: Test B flooded paddy test; conditions: for Plant response rating, Flood, Ducksalad: 250 g ai/ha, flooded paddy test, visual rating on 0 to 100 scale (0 no effect, 100 complete control) after 13 to 15 days; for Plant response rating, Ducksalad: Flood (flooded paddy test), 13 to 15 days
# In short: as §2
# rice (Oryza sativa) = test: Test B flooded paddy test; conditions: for Plant response rating, Flood, Rice: 250 g ai/ha, flooded paddy test, visual rating on 0 to 100 scale (0 no effect, 100 complete control) after 13 to 15 days; for Plant response rating, Rice: Flood (flooded paddy test), 13 to 15 days
# In short: as §2
# [11] = Postemergence, 125 g ai/ha, 0 to 100 scale where 0 is no effect and 100 is complete control
# [12] = Postemergence, 500 g ai/ha, visual injury, 0 to 100 scale (0 no effect, 100 complete control), approx. ten days
# [13] = Preemergence, 125 g ai/ha, 0 to 100 scale, 0 = no effect, 100 = complete control
# [14] = Preemergence, 500 g ai/ha, 0 to 100 scale, 0 = no effect, 100 = complete control
# [15] = 62 g ai/ha, scale of 0 to 100 where 0 is no effect and 100 is complete control
# [16] = 125 g ai/ha, scale 0 to 100, 0 is no effect, 100 is complete control
# [17] = Flood, 31 g ai/ha, scale 0 to 100 (0 no effect, 100 complete control)
# [18] = Postemergence, 125 g ai/ha, visual injury, 0 to 100 scale (0 no effect, 100 complete control), approx. ten days
# [19] = Postemergence, 500 g ai/ha, 0 to 100 scale, 0 = no effect, 100 = complete control, approx. ten days
# [20] = Preemergence, 500 g ai/ha, visual injury, 0 to 100 scale (0 no effect, 100 complete control), approx. ten days
# [21] = 31 g ai/ha, scale of 0 to 100 where 0 is no effect and 100 is complete control
# [22] = 62 g ai/ha, scale 0 to 100, 0 is no effect, 100 is complete control
smiles,measurement,setting,value
CCn1c(Cc2ccccc2)ncc(C(=O)C2=C(O)CCCC2=O)c1=O [Compound 200],"Plant response rating, Corn",corn (Zea mays); [11],0
same,Corn plant response rating,corn (Zea mays); [12],0
same,"Plant response rating, Corn",corn (Zea mays); [13],0
same,"Plant response rating, Corn",corn (Zea mays); [14],0
same,"Plant response rating, Foxtail, Giant",[1]; [11],0
same,"Foxtail, Giant plant response rating",[1]; [12],10
same,"Plant response rating, Foxtail, Giant",[1]; [13],0
same,"Plant response rating, Foxtail, Giant",[1]; [14],0
same,"Plant response rating, Velvetleaf",[2]; [11],100
same,Velvetleaf plant response rating,[2]; [12],100
same,"Plant response rating, Velvetleaf",[2]; [13],0
same,"Plant response rating, Velvetleaf",[2]; [14],60
same,"Plant response rating, Wheat",[3]; [11],0
same,Wheat plant response rating,[3]; [12],0
same,"Plant response rating, Wheat",[3]; [13],0
same,"Plant response rating, Wheat",[3]; [14],0
same,"Plant response rating, Pigweed",[4]; [11],60
same,Pigweed plant response rating,[4]; [12],80
same,"Plant response rating, Pigweed",[4]; [13],0
same,"Plant response rating, Pigweed",[4]; [14],20
same,"Plant response rating, Barnyardgrass",[5]; [11],0
same,Barnyardgrass plant response rating,[5]; [12],10
same,"Plant response rating, Barnyardgrass",[5]; [13],0
same,"Plant response rating, Barnyardgrass",[5]; [14],0
same,"Plant response rating, Morningglory",[6]; [11],50
same,Morningglory plant response rating,[6]; [12],60
same,"Plant response rating, Morningglory",[6]; [13],0
same,"Plant response rating, Crabgrass, Large",[7]; [11],10
same,"Crabgrass, Large plant response rating",[7]; [12],10
same,"Plant response rating, Crabgrass, Large",[7]; [13],0
same,"Plant response rating, Crabgrass, Large",[7]; [14],0
same,"Plant response rating, Flood, Barnyardgrass",[8],38
same,"Plant response rating, Barnyardgrass",[8]; [15],0
same,"Plant response rating, Barnyardgrass",[8]; [16],23
same,Barnyardgrass plant response rating,[8]; [17],0
same,"Plant response rating, Flood, Sedge, Umbrella",[9],70
same,"Plant response rating, Sedge, Umbrella",[9]; [15],33
same,"Plant response rating, Sedge, Umbrella",[9]; [16],43
same,"Sedge, Umbrella plant response rating",[9]; [17],30
same,"Plant response rating, Flood, Ducksalad",[10],85
same,"Plant response rating, Ducksalad",[10]; [15],83
same,"Plant response rating, Ducksalad",[10]; [16],85
same,Ducksalad plant response rating,[10]; [17],38
same,"Plant response rating, Flood, Rice",rice (Oryza sativa),23
same,"Plant response rating, Rice",rice (Oryza sativa); [15],0
same,"Plant response rating, Rice",rice (Oryza sativa); [16],10
same,Rice plant response rating,rice (Oryza sativa); [17],0
O=C1CCCC(O)=C1C(=O)c1cnc(-c2ccccc2Cl)n(-c2ccccc2)c1=O [Compound 35],Corn plant response rating,corn (Zea mays); [18],0
same,"Plant response rating, Corn",corn (Zea mays); [19],10
same,"Plant response rating, Corn",corn (Zea mays); [13],0
same,"Plant response rating, Corn",corn (Zea mays); [20],0
same,"Foxtail, Giant plant response rating",[1]; [18],40
same,"Plant response rating, Foxtail, Giant",[1]; [19],80
same,"Plant response rating, Foxtail, Giant",[1]; [13],0
same,"Plant response rating, Foxtail, Giant",[1]; [20],10
same,Velvetleaf plant response rating,[2]; [18],100
same,"Plant response rating, Velvetleaf",[2]; [19],100
same,"Plant response rating, Velvetleaf",[2]; [13],0
same,"Plant response rating, Velvetleaf",[2]; [20],70
same,Wheat plant response rating,[3]; [18],0
same,"Plant response rating, Wheat",[3]; [19],0
same,"Plant response rating, Wheat",[3]; [13],0
same,"Plant response rating, Wheat",[3]; [20],0
same,Pigweed plant response rating,[4]; [18],80
same,"Plant response rating, Pigweed",[4]; [19],100
same,"Plant response rating, Pigweed",[4]; [13],10
same,"Plant response rating, Pigweed",[4]; [20],100
same,Barnyardgrass plant response rating,[5]; [18],10
same,"Plant response rating, Barnyardgrass",[5]; [19],60
same,"Plant response rating, Barnyardgrass",[5]; [13],0
same,"Plant response rating, Barnyardgrass",[5]; [20],0
same,"Plant response rating, Morningglory",[6]; [19],80
same,"Plant response rating, Morningglory",[6]; [20],20
same,"Crabgrass, Large plant response rating",[7]; [18],50
same,"Plant response rating, Crabgrass, Large",[7]; [19],80
same,"Plant response rating, Crabgrass, Large",[7]; [13],10
same,"Plant response rating, Crabgrass, Large",[7]; [20],60
same,"Plant response rating, Flood, Barnyardgrass",[8],0
same,"Plant response rating, Barnyardgrass",[8]; [21],0
same,"Plant response rating, Barnyardgrass",[8]; [22],0
same,"Plant response rating, Barnyardgrass",[8]; [16],0
same,"Plant response rating, Flood, Sedge, Umbrella",[9],0
same,"Plant response rating, Sedge, Umbrella",[9]; [21],0
same,"Plant response rating, Sedge, Umbrella",[9]; [22],0
same,"Plant response rating, Sedge, Umbrella",[9]; [16],0
same,"Plant response rating, Flood, Ducksalad",[10],0
same,"Plant response rating, Ducksalad",[10]; [21],0
same,"Plant response rating, Ducksalad",[10]; [22],0
same,"Plant response rating, Ducksalad",[10]; [16],0
same,"Plant response rating, Rice",rice (Oryza sativa); [21],0
same,"Plant response rating, Rice",rice (Oryza sativa); [22],0
same,"Plant response rating, Rice",rice (Oryza sativa); [16],0
Cc1ccc(C)c(-n2c(-c3ccccc3)ncc(C(=O)c3cnoc3C3CC3)c2=O)c1 [Compound 222],"Plant response rating, Corn",corn (Zea mays); [11],0
same,Corn plant response rating,corn (Zea mays); [12],0
same,"Plant response rating, Corn",corn (Zea mays); [13],0
same,"Plant response rating, Corn",corn (Zea mays); [14],0
same,"Plant response rating, Foxtail, Giant",[1]; [11],0
same,"Foxtail, Giant plant response rating",[1]; [12],40
same,"Plant response rating, Foxtail, Giant",[1]; [13],30
same,"Plant response rating, Foxtail, Giant",[1]; [14],60
same,"Plant response rating, Velvetleaf",[2]; [11],60
same,Velvetleaf plant response rating,[2]; [12],90
same,"Plant response rating, Velvetleaf",[2]; [13],0
same,"Plant response rating, Velvetleaf",[2]; [14],60
same,"Plant response rating, Wheat",[3]; [11],0
same,Wheat plant response rating,[3]; [12],0
same,"Plant response rating, Wheat",[3]; [13],0
same,"Plant response rating, Wheat",[3]; [14],0
same,"Plant response rating, Pigweed",[4]; [11],40
same,Pigweed plant response rating,[4]; [12],70
same,"Plant response rating, Pigweed",[4]; [13],0
same,"Plant response rating, Pigweed",[4]; [14],0
same,"Plant response rating, Barnyardgrass",[5]; [11],10
same,Barnyardgrass plant response rating,[5]; [12],80
same,"Plant response rating, Barnyardgrass",[5]; [13],0
same,"Plant response rating, Barnyardgrass",[5]; [14],60
same,"Plant response rating, Morningglory",[6]; [11],30
same,Morningglory plant response rating,[6]; [12],40
same,"Plant response rating, Morningglory",[6]; [13],0
same,"Plant response rating, Morningglory",[6]; [14],40
same,"Plant response rating, Crabgrass, Large",[7]; [11],0
same,"Crabgrass, Large plant response rating",[7]; [12],30
same,"Plant response rating, Crabgrass, Large",[7]; [13],20
same,"Plant response rating, Crabgrass, Large",[7]; [14],20
same,"Plant response rating, Flood, Barnyardgrass",[8],0
same,"Plant response rating, Barnyardgrass",[8]; [15],0
same,"Plant response rating, Flood, Sedge, Umbrella",[9],40
same,"Plant response rating, Sedge, Umbrella",[9]; [15],30
same,"Plant response rating, Flood, Ducksalad",[10],65
same,"Plant response rating, Ducksalad",[10]; [15],50
same,"Plant response rating, Flood, Rice",rice (Oryza sativa),0
same,"Plant response rating, Rice",rice (Oryza sativa); [15],0
